Measurements taken from ChEMBL document CHEMBL5528050, “Discovery of a Novel Series of Homo sapiens Caseinolytic Protease P Agonists for Colorectal Adenocarcinoma Treatment via ATF3-Dependent Integrated Stress Response” (J Med Chem, 2024).
Active and inactive are the calls of the source. No cut-off for these calls is given here.

Columns and labels:
[1] = target: ATP-dependent Clp protease proteolytic subunit (Escherichia coli (strain K12)) (UniProt P0A6G7); test: Agonist activity at Escherichia coli ClpP using Suc-LY-AMC as substrate at 10 to 100 uM measured every 5 mins for 1 hr by fluorescence based analysis; conditions: dose 10-100 µM
Staphylococcus aureus [2] = test: Antibacterial activity against Staphylococcus aureus ATCC25923 assessed as reduction in bacterial growth; format: functional
Staphylococcus aureus [3] = test: Antibacterial activity against Staphylococcus aureus ATCC33591 assessed as reduction in bacterial growth; format: functional
Staphylococcus aureus [4] = test: Antibacterial activity against Staphylococcus aureus ATCC43300 assessed as reduction in bacterial growth; format: functional
Escherichia coli = test: Antibacterial activity against Escherichia coli ATCC25922 assessed as reduction in bacterial growth; format: functional
HCT-116 [5] = test: Inhibition of mitochondrial function in human HCT-116 cells assessed as reduction in ATP production; format: functional, cell-based
HCT-116 [6] = test: Antiproliferative activity against human HCT-116 cells assessed reduction in clone formation measured after 48 hrs by crystal violet staining based analysis; format: functional, cell-based
HCT-116 [7] = test: Induction of apoptosis in human HCT-116 cells measured after 48 hrs by annexin V-FITC/7-AAD based flow cytometry analysis; format: functional, cell-based
HCT-116 [8] = test: Induction of apoptosis in human HCT-116 cells assessed as apoptotic rate at low dose measured after 48 hrs by annexin V-FITC/7-AAD based flow cytometry analysis relative to control; format: functional
HCT-116 [9] = test: Induction of apoptosis in human HCT-116 cells assessed as apoptotic rate at medium dose measured after 48 hrs by annexin V-FITC/7-AAD based flow cytometry analysis relative to control; format: functional
HCT-116 [10] = test: Induction of apoptosis in human HCT-116 cells assessed as cell death at 2 uM measured after 48 hrs by annexin V-FITC/7-AAD based flow cytometry analysis relative to control; format: functional
HCT-116 [11] = test: Induction of apoptosis in human HCT-116 cells assessed as upregulation of bax expression at 0.5 to 2 uM measured after 48 hrs by Western blot analysis; format: functional, cell-based; conditions: dose 0.5-2 µM
HCT-116 [12] = test: Induction of apoptosis in human HCT-116 cells assessed as downregulation of bcl-2 expression at 0.5 to 2 uM measured after 48 hrs by Western blot analysis; format: functional, cell-based; conditions: dose 0.5-2 µM
HCT-116 [13] = test: Induction of cell cycle arrest in human HCT-116 cells assessed as effect on number of cells at G1 phase at 0.5 to 2 uM measured after 48 hrs by PI staining based flow cytometry analysis; format: functional; conditions: dose 0.5-2 µM
HCT-116 [14] = test: Induction of cell cycle arrest in human HCT-116 cells assessed as increase in number of cells at G2 phase at 0.5 uM measured after 48 hrs by PI staining based flow cytometry analysis; format: functional
[15] = Acute toxicity in BALB/c mouse assessed as survival at 50 mg/kg, iv administered as single dose measured upto 14 days; format: organism-based; conditions: in vivo, 336 h, time < 14 day
[16] = Acute toxicity in BALB/c mouse assessed as effect on spleen at 50 mg/kg, iv administered as single dose measured upto 14 days by H and E staining based analysis; format: organism-based; conditions: in vivo, 336 h, time < 14 day
[17] = Acute toxicity in BALB/c mouse assessed as effect on kidney at 50 mg/kg, iv administered as single dose measured upto 14 days by H and E staining based analysis; format: organism-based; conditions: in vivo, 336 h, time < 14 day
HCT-116 [18] = test: Antitumor activity against human HCT-116 cells xenografted in BALB/c nude mouse model assessed as reduction in tumor volume at 2.5 mg/kg,iv administered twice weekly and measured upto 21 days relative to control; format: functional; design: scale not given: the % may be the effect or the level left; conditions: time <= 21 day
HCT-116 [19] = test: Antitumor activity against human HCT-116 cells xenografted in BALB/c nude mouse model assessed as reduction in tumor weight at high dose administered as iv twice weekly and measured upto 21 days; format: functional; conditions: time <= 21 day
[20] = Toxicity in BALB/c nude mouse assessed as effect on liver at 1.25 to 5 mg/kg, iv administered twice weekly and measured after 21 days by H and E staining based analysis; format: organism-based; conditions: in vivo, 504 h, dose 1.25-5 mg/kg, time 21 day
[21] = Toxicity in BALB/c nude mouse assessed as effect on lung at 1.25 to 5 mg/kg, iv administered twice weekly and measured after 21 days by H and E staining based analysis; format: organism-based; conditions: in vivo, 504 h, dose 1.25-5 mg/kg, time 21 day
[22] = Cmax in Sprague-Dawley rat at 10 mg/kg, iv by LC-MS/MS analysis; format: ADME, organism-based; conditions: in vivo
[23] = AUC (0 to 12hrs) in Sprague-Dawley rat at 10 mg/kg, iv by LC-MS/MS analysis; format: ADME, organism-based; conditions: in vivo
[24] = Clearance in Sprague-Dawley rat at 10 mg/kg, iv by LC-MS/MS analysis; format: ADME, organism-based; conditions: in vivo
[25] = MRT (0 to 24 hrs) in Sprague-Dawley rat at 10 mg/kg, iv by LC-MS/MS analysis; format: ADME, organism-based; conditions: in vivo
[26] = AUC (0 to 12hrs) in Sprague-Dawley rat at 10 mg/kg, po by LC-MS/MS analysis; format: ADME, organism-based; conditions: in vivo
[27] = MRT (0 to 12hrs) in Sprague-Dawley rat at 10 mg/kg, po by LC-MS/MS analysis; format: ADME, organism-based; conditions: in vivo
[28] = Oral bioavailability in Sprague-Dawley rat at 10 mg/kg by LC-MS/MS analysis; format: ADME, organism-based; conditions: in vivo
HCT-116 [29] = test: Upregulation of ATF3 mRNA expression in human HCT-116 cells by RT-PCR analysis; format: functional, cell-based
HCT-116 [30] = test: Upregulation of DDIT3 mRNA expression in human HCT-116 cells by RT-PCR analysis; format: functional, cell-based
HCT-116 [31] = test: Upregulation of ID1 expression in human HCT-116 cells measured after 48 hrs by Western blot analysis; format: functional, cell-based
HCT-116 [32] = test: Upregulation of CHAC1 expression in human HCT-116 cells measured after 48 hrs by Western blot analysis; format: functional, cell-based
HCT-116 [33] = test: Upregulation of GCLC expression in human HCT-116 cells measured after 48 hrs by Western blot analysis; format: functional, cell-based
HCT-116 [34] = test: Effect on […] expression in ClpP knockdown human HCT-116 cells at 2 uM measured after 48 hrs by Western blot analysis; format: functional, cell-based
HCT-116 [35] = test: Effect on DDIT4 expression in ClpP knockdown human HCT-116 cells at 2 uM measured after 48 hrs by Western blot analysis; format: functional, cell-based
HCT-116 [36] = test: cells; conditions: Homo sapiens, HCT-116, 72 h
Description: Antiproliferative activity against human HCT-116 cells assessed as inhibition of cell growth measured after 72 hrs by CCK-8 method

HCT-15 = test: cells; conditions: Homo sapiens, HCT-15, 72 h
Description: Antiproliferative activity against human HCT-15 cells assessed as inhibition of cell growth measured after 72 hrs by CCK-8 method

DLD-1 = test: cells; conditions: Homo sapiens, DLD-1, 72 h
Description: Antiproliferative activity against human DLD-1 cells assessed as inhibition of cell growth measured after 72 hrs by CCK-8 method

ATP-dependent Clp protease proteolytic subunit (Escherichia coli (strain K12)), sequence (P0A6G7 whole entry): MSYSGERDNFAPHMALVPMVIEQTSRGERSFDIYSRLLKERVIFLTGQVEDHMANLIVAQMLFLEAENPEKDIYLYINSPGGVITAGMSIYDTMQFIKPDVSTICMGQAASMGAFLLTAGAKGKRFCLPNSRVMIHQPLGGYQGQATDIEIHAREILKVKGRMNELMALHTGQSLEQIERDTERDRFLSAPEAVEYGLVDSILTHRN

For `N#Cc1cccc(CN2CCC=C(C(=O)NCc3ccc(C(F)(F)F)cc3)C2)c1`, which Activity [1] is on record?
The Activity was “inactive”.

And the MIC (Staphylococcus aureus [2])?
Its MIC is over 128 µg/mL.

What about the MIC (Staphylococcus aureus [3]) of the same molecule?
Its MIC is over 128 µg/mL.

And the MIC (Staphylococcus aureus [4])?
Its MIC is over 128 µg/mL.

What about the MIC (Escherichia coli) of the same molecule?
Its MIC is over 128 µg/mL.

And the inhibition (HCT-116 [5])?
The inhibition was “Active”.

And the Activity (HCT-116 [6])?
The Activity was “Dose-Dependent Effect”.

And the Activity (HCT-116 [7])?
The Activity was “Dose-Dependent Effect”.

What about the Activity (HCT-116 [8]) of the same molecule?
Its Activity is 22%.

What about the Activity (HCT-116 [9]) of the same molecule?
The Activity was 46%.

What about the Activity (HCT-116 [10]) of the same molecule?
Its Activity is 60%.

And the Activity (HCT-116 [11])?
Its Activity is “Active”.

What about the Activity (HCT-116 [12]) of the same molecule?
The Activity was “Active”.

What about the Activity (HCT-116 [13]) of the same molecule?
Its Activity is “inactive”.

And the Activity (HCT-116 [14])?
Its Activity is 20%.

And the Activity [15]?
Its Activity is “Non-Toxic”.

What about the Activity [16] of the same molecule?
The Activity was “Non-Toxic”.

What about the Activity [17] of the same molecule?
Its Activity is “Non-Toxic”.

And the Activity (HCT-116 [18])?
The Activity was 70%.

And the Activity (HCT-116 [19])?
Its Activity is 300 mg.

What about the Activity [20] of the same molecule?
The Activity was “Non-Toxic”.

What about the Activity [21] of the same molecule?
The Activity was “Non-Toxic”.

What about the Cmax [22] of the same molecule?
The Cmax was 966 ng/mL.

What about the AUC [23] of the same molecule?
Its AUC is 1433.6 ng·h/mL.

And the CL [24]?
Its CL is 2.172 mL/min/kg.

And the MRT last [25]?
Its MRT last is 3.1 h.

And the AUC(0-t) [26]?
Its AUC(0-t) is 777 ng·h/mL.

What about the MRT last [27] of the same molecule?
Its MRT last is 6.7 h.

And the bioavailability [28]?
Its bioavailability is 54.2%.

What about the Activity (HCT-116 [29]) of the same molecule?
The Activity was “Active”.

What about the Activity (HCT-116 [30]) of the same molecule?
The Activity was “Active”.

And the Activity (HCT-116 [31])?
The Activity was “Active”.

And the Activity (HCT-116 [32])?
Its Activity is “Active”.

And the Activity (HCT-116 [33])?
The Activity was “Active”.

And the Activity (HCT-116 [34])?
Its Activity is “inactive”.

What about the Activity (HCT-116 [35]) of the same molecule?
The Activity was “inactive”.

What about the IC50 (HCT-116 [36]) of the same molecule?
The IC50 was 1 µM.

And the IC50 (HCT-15)?
The IC50 was 3.5 µM.

And the IC50 (DLD-1)?
Its IC50 is 3.1 µM.
